This test deals with pituitary cells. Description: rat pituitary cell bioassay for GRF (release of growth hormone). In kind it is cell-based. The following applies: plated rat pituitary cells, dexamethasone added, GH measured by anti-rat GH RIA; yeast peptide purified, from pTRP213-transformed GG100-14D. Here is the method: A rat pituitary cell bioassay for GRF was conducted using the purified GRF analog secreted from pTRP213-transformed S. cerevisiae cells (GG100-14D). The ability of the GRF analog to cause the release of growth hormone from the pituitary cells was measured and compared to the ability of a synthetic hGRF(1-40)-OH standard to do the same. Such an analysis allowed the biological activity of yeast-produced GRF analog to be evaluated.
Typically, pituitaries of 20 rats were removed and treated with collagenase to obtain a suspension of approximately 8×10^7 cells which were then plated in the appropriate medium. The cells, attached to tissue culture dishes, were treated with yeast-derived peptide or synthetic standard within three to five days after plating. Dexamethasone was added to enhance the effect of GRF on GH secretion; cells treated in this manner secrete 8-9 times more GH than do control cells treated with GRF but not dexamethasore. Growth hormone secretion levels were measured using an anti-rat GH RIA which had been standardized with respect to the synthetic standard.
The percent of maximum rat growth hormone secretion upon treatment of the plated pituitary cells with purified GRF analog secreted from yeast and treatment with synthetic hGRF(1-40)-OH was determined. The ED50 value for secretion with both treatments was about. 32 pM.

Ends that are not written are not given here.

With “hGRF(1-40)-OH (YADAIFTNSYRKVLGQLSARKLLQDIMSRQQGESNQERGA-OH; UniProt P01286 32-71, looked up, fragment) [synthetic hGRF(1-40)-OH, synthetic polypeptide standard, hGRF(1-40)-OH (with Met at position 27)]”, the “ED50 value for secretion (percent of maximum rat growth hormone secretion)” value is roughly 0.032 nM.

The values are drawn from patent EP0206783A2, “Expression and secretion of polypeptides from saccharomyces cerevisiae” (The Salk Institute Biotechnology Industrial Associates, Inc., priority 1985, dated 1986).
